Values joined by “and” are separate entries in the source; they are usually repeats but may differ in a detail not shown here. Equal entries are not always repeated.
What was measured:
Format in all cases: cell-based, human
MCF7 cells = assay: Growth assay (SRB), MCF7; conditions: for % Growth: biological reps
Procedure: (§1) To determine the IC50 of drug treatments on growth, cells were seeded in 96-well culture plates. Two days after seeding, the cells were treated with increasing concentrations of drugs and incubated for 4 days. Cell number was determined using the SRB assay (Skehan et al, [1990]), and IC50 values were calculated using non-linear regression curve fitting in GraphPad Prism v10. For all other growth experiments, cells were seeded into 96-well plates, and appropriate drugs were added 2 days after seeding. Cells were then incubated in an IncuCyte Zoom live-cell imager, with cell confluency measured every 6 h. Cell doubling times were determined by non-linear curve fitting (exponential growth equation) in GraphPad Prism v10.

22Rv1-CDK7-D97N cells = assay: Growth assay (SRB), 22Rv1 CDK7-D97N knock-in pool; conditions: for % Growth: 22Rv1 CDK7 D99N
Procedure: as §1
(§2) Alt-R^TM S.p. Cas9 nuclease V3, Alt-R CRISPR-Cas9 crRNA, TracrRNA and the donor templates were obtained from Integrated DNA Technologies. […] Cells were treated with 0.7 µM of Alt-R HDR Enhancer V2 to improve HRD efficiency. Sequences of the CRISPRs in the crRNA and the donor templates are shown in the Reagents and tools table. Donor templates were designed to include non-coding substitutions to aid genome DNA PCR for identifying knock-in events and to facilitate cloning; these substitutions are noted in the Reagents and tools table.

LNCaP-CDK7-D97N cells = assay: Growth assay (SRB), LNCaP CDK7-D97N knock-in; conditions: for % Growth: LNCaP CDK7 D99N
Procedure: as §1, §2

LNCaP cells = assay: Growth assay (SRB), LNCaP
Procedure: as §1

MCF7-CDK7-D97N cells = assay: Growth assay (SRB), MCF7 CDK7-D97N knock-in; conditions: for % Growth: MCF7 CDK7 D99N, biological reps
Procedure: as §1, §2

22Rv1 cells = assay: Growth assay (SRB), 22Rv1
Procedure: as §1

22Rv1-SamR cells = assay: Growth assay (SRB), Samuraciclib-resistant 22Rv1; conditions: for % Growth: 22Rv1 SamR, 4 days, biological reps
Procedure: as §1

IC50 (MCF7 cells; 4 days, SRB): 5.5 nM | IC50 (MCF7-CDK7-D97N cells; MCF7-CDK7-D97N, 4 days, SRB): 8 nM | Resistance (Fold), fold increase in IC50 of 22Rv1-SamR relative to 22Rv1 (22Rv1-SamR cells; 22Rv1-SamR vs 22Rv1): 2.0 fold
Compound: C=CC(=O)Nc1ccc(C(=O)Nc2[nH]nc3c2CN(C(=O)N[C@H](CN(C)C)c2ccccc2)C3(C)C)cc1 [YKL-5-124]
% Growth (MCF7 cells; Log10 Conc. (nM) 0.09, 4 days): 84.50% and 79.80% and 95.09% and 95.13% | % Growth (MCF7 cells; Log10 Conc. (nM) -0.52, 4 days): 99.55% and 100.47% and 99.34% and 100.40% | % Growth (MCF7 cells; Log10 Conc. (nM) -1.12, 4 days): 92.16% and 94.11% and 96.62% and 97.54% | Sensitivity in growth assays (22Rv1-CDK7-D97N cells; 22Rv1-CDK7-D97N vs parental): remaining sensitive | % Growth (22Rv1-CDK7-D97N cells; Log10 Conc. (nM) 0.09): 95.04% and 95.37% | % Growth (22Rv1-CDK7-D97N cells; Log10 Conc. (nM) 0.69): 93.89% and 97.25% | % Growth (22Rv1-CDK7-D97N cells; Log10 Conc. (nM) 1.29): 85.36% and 88.43% | % Growth (22Rv1-CDK7-D97N cells; Log10 Conc. (nM) 1.89): 88.25% and 90.69% | % Growth (22Rv1-CDK7-D97N cells; Log10 Conc. (nM) 2.49): 93.92% and 88.27% | % Growth (22Rv1-CDK7-D97N cells; Log10 Conc. (nM) 3.10): 65.35% and 66.63% | % Growth (22Rv1-CDK7-D97N cells; Log10 Conc. (nM) 3.70): 34.13% and 30.83% | % Growth (22Rv1-CDK7-D97N cells; Log10 Conc. (nM) -0.52): 104.35% and 94.29% | % Growth (22Rv1-CDK7-D97N cells; Log10 Conc. (nM) -1.12): 96.98% and 94.29% | % Growth (LNCaP-CDK7-D97N cells; Log10 Conc. (nM) 0.09): 95.98% and 86.14% | % Growth (LNCaP-CDK7-D97N cells; Log10 Conc. (nM) 0.69): 91.96% and 46.53% | % Growth (LNCaP-CDK7-D97N cells; Log10 Conc. (nM) -0.52): 97.82% and 101.86% | % Growth (LNCaP-CDK7-D97N cells; Log10 Conc. (nM) -1.12): 92.55% and 85.18% | Sensitivity in growth assays (LNCaP-CDK7-D97N cells; LNCaP-CDK7-D97N vs parental): remaining sensitive | % Growth (LNCaP cells; Log10 Conc. (nM) 0.09): 110.86% and 92.81% | % Growth (LNCaP cells; Log10 Conc. (nM) 0.69): 85.55% and 79.81% | % Growth (LNCaP cells; Log10 Conc. (nM) 3.70): -11.67% and -9.39% | % Growth (LNCaP cells; Log10 Conc. (nM) -0.52): 109.97% and 100.05% | % Growth (LNCaP cells; Log10 Conc. (nM) -1.12): 106.79% and 104.82% | Resistance (Fold) (MCF7-CDK7-D97N cells; MCF7-CDK7-D97N vs MCF7 WT): 1.45 fold | % Growth (MCF7-CDK7-D97N cells; Log10 Conc. (nM) 0.09, 4 days): 94.47% and 108.04% and 95.31% and 94.01% | % Growth (MCF7-CDK7-D97N cells; Log10 Conc. (nM) 0.69, 4 days): 69.10% and 46.95% and 78.88% and 82.06% | % Growth (MCF7-CDK7-D97N cells; Log10 Conc. (nM) -0.52, 4 days): 98.82% and 155.20% and 98.59% and 96.08% | % Growth (MCF7-CDK7-D97N cells; Log10 Conc. (nM) -1.12, 4 days): 96.88% and 112.86% and 97.89% and 98.06% | % Growth (22Rv1 cells; 22Rv1, Log10 Conc. (nM) 0.09): 59.88% and 63.28% | % Growth (22Rv1 cells; 22Rv1, Log10 Conc. (nM) 0.69): 24.70% and 25.33% | % Growth (22Rv1 cells; 22Rv1, Log10 Conc. (nM) 1.29): 14.01% and 10.35% | % Growth (22Rv1 cells; 22Rv1, Log10 Conc. (nM) 1.89): 12.24% and 10.17% | % Growth (22Rv1 cells; 22Rv1, Log10 Conc. (nM) 2.49): 11.07% and 8.36% | % Growth (22Rv1 cells; 22Rv1, Log10 Conc. (nM) 3.10): 1.88% and 3.47% | % Growth (22Rv1 cells; 22Rv1, Log10 Conc. (nM) 3.70): 0.13% and -0.45% | % Growth (22Rv1 cells; 22Rv1, Log10 Conc. (nM) -0.52): 83.49% and 90.26% | % Growth (22Rv1 cells; 22Rv1, Log10 Conc. (nM) -1.12): 94.90% and 93.56% | % Growth (22Rv1 cells; 22Rv1, Log10 Conc. (nM) 0.09, 4 days, biological reps): 93.20% and 88.05% | % Growth (22Rv1 cells; 22Rv1, Log10 Conc. (nM) 0.69, 4 days, biological reps): 85.45% and 77.80% | % Growth (22Rv1 cells; 22Rv1, Log10 Conc. (nM) 1.29, 4 days, biological reps): 56.44% and 44.90% | % Growth (22Rv1 cells; 22Rv1, Log10 Conc. (nM) 1.89, 4 days, biological reps): 5.80% and -0.07% | % Growth (22Rv1 cells; 22Rv1, Log10 Conc. (nM) 2.49, 4 days, biological reps): -4.12% and -6.31% | % Growth (22Rv1 cells; 22Rv1, Log10 Conc. (nM) 3.10, 4 days, biological reps): -6.49% and -7.67% | % Growth (22Rv1 cells; 22Rv1, Log10 Conc. (nM) 3.70, 4 days, biological reps): -6.63% and -7.61% | % Growth (22Rv1 cells; 22Rv1, Log10 Conc. (nM) -0.52, 4 days, biological reps): 98.36% and 93.94% | % Growth (22Rv1 cells; 22Rv1, Log10 Conc. (nM) -1.12, 4 days, biological reps): 96.18% and 94.83% | Sensitivity in growth assays (22Rv1-SamR cells; 22Rv1-SamR): remained sensitive | % Growth (22Rv1-SamR cells; Log10 Conc. (nM) 0.09): 83.75% and 87.25% | % Growth (22Rv1-SamR cells; Log10 Conc. (nM) 0.69): 68.41% and 67.61% | % Growth (22Rv1-SamR cells; Log10 Conc. (nM) 1.29): 30.25% and 41.41% | % Growth (22Rv1-SamR cells; Log10 Conc. (nM) 1.89): -7.69% and -2.73% | % Growth (22Rv1-SamR cells; Log10 Conc. (nM) 2.49): -11.43% and -7.53% | % Growth (22Rv1-SamR cells; Log10 Conc. (nM) 3.10): -11.82% and -8.43% | % Growth (22Rv1-SamR cells; Log10 Conc. (nM) 3.70): -15.22% and -10.53% | % Growth (22Rv1-SamR cells; Log10 Conc. (nM) -0.52): 93.15% and 99.90% | % Growth (22Rv1-SamR cells; Log10 Conc. (nM) -1.12): 93.43% and 95.60%

— publication PMC12528448, “Resistance to CDK7 inhibitors directed by acquired mutation of a conserved residue in cancer cells” (The EMBO Journal, 2025)
